“And” between values parts separate entries of the source, which are not always exact repeats. Identical values can stand only once.
Target: Prostacyclin receptor (Mus musculus, UniProt P43252)
Sequence (P43252 whole entry): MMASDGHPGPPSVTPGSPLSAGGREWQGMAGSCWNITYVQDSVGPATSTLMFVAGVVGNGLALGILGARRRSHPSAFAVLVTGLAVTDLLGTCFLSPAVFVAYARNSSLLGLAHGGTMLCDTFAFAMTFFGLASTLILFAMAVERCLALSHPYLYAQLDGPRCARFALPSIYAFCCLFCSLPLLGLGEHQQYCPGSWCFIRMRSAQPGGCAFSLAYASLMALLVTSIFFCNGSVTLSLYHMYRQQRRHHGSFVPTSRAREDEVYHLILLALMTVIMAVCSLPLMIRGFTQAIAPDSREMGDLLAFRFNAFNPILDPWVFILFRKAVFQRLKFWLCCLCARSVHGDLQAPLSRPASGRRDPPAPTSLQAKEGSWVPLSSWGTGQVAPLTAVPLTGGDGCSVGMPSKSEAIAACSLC

Ki	SMILES
> 10 µM	CCCCC[C@@H](O)/C=C/[C@H]1[C@H](O)CC(=O)[C@@H]1C/C=C\CCCC(=O)O
0.137 µM	CCCCC[C@@H](O)/C=C/[C@H]1[C@H](O)CC(=O)[C@@H]1CCCCCCC(=O)O
0.735 µM	CCCCC[C@H](O)/C=C/C1[C@H](O)CC(=O)[C@H]1CCCCCCC(=O)O (stereo partly drawn) [8-ISO PROSTAGLANDIN E1]
0.735 µM	CCCCC[C@H](O)/C=C/[C@H]1[C@H](O)CC(=O)[C@@H]1C/C=C/CCCC(=O)O [(E)-7-((1R,2R,3R)-3-hydroxy-2-((S,E)-3-hydroxyoct-1-enyl)-5-oxocyclopentyl)hept-5-enoic acid]
0.315 µM	CCCCC[C@H](O)CC[C@H]1[C@H](O)CC(=O)[C@@H]1CCCCCCC(=O)O [CAS_19313-28-1]
> 10 µM	CCCCC[C@H](O)/C=C/[C@H]1[C@H](O)CC(=O)[C@@H]1C/C=C\CCCC(=O)O [DINOPROSTONE]
> 10 µM	CCCCCC(O)C=CC1C(O)CC(O)C1CCCCCCC(=O)O (stereo not drawn) [NSC_5280939]

More lines, now with the values behind:

SMILES	Ki
CCCCC[C@H](O)/C=C/[C@@H]1[C@H]2C/C(=C\CCCC(=O)O)C[C@H]2C[C@H]1O	0.0166 µM
CCCCC[C@H](O)/C=C/[C@@H]1[C@@H](CC(=O)CCC(=O)O)[C@@H](O)C[C@H]1O [2,3-dinor-6-ketoprostaglandin F1alpha]	> 10 µM
CCCCCC(=O)CC[C@H]1[C@H](O)CC(=O)[C@@H]1C/C=C\CCCC(=O)O [13,14-DIHYDRO-15-KETO PROSTAGLANDIN E2]	8.41 µM and > 10 µM
O=C(O)CCC/C=C\C[C@H]1C(=O)C[C@@H](O)[C@@H]1/C=C/[C@@H](O)CCc1ccccc1 [17-PHENYL TRINOR PROSTAGLANDIN E2]	4.37 µM
CCCCC[C@H](O)/C=C/C1[C@H](O)C[C@H](O)[C@@H]1C/C=C\CCCC(=O)O (stereo partly drawn) [(Z)-7-[(1R,3R,5S)-3,5-Dihydroxy-2-((E)-(S)-3-hydroxy-oct-1-enyl)-cyclopentyl]-hept-5-enoic acid]	> 10 µM
CCCCCC(O)C=CC1C(O)CC2OC(CCCCC(=O)O)CC21 (stereo not drawn) [CAS_162981]	7.35 µM

From BindingDB's records for doi:10.1016/0006-2952(81)90220-3 (Royal Postgraduate Medical School, 1981)
